From ChEMBL document CHEMBL1141126, “Improving the antiviral efficacy and selectivity of HIV-1 reverse transcriptase inhibitor TSAO-T by the introduction of functional groups at the N-3 position” (J Med Chem, 2005)

Key:
[1] = target: Human immunodeficiency virus type 1 reverse transcriptase (Human immunodeficiency virus 1, UniProt Q72547); experiment: Inhibitory concentration required to inhibit recombinant HIV-1 reverse transcriptase
[2] = test system: CCRF-CEM; experiment: Cytostatic concentration required to inhibit cell proliferation in human CEM cell line; format: functional
[3] = test system: CCRF-CEM; experiment: Ratio of cytostatic concentration to effective concentration in human CEM cell line; format: functional
[4] = test system: Human immunodeficiency virus 1; experiment: Effective concentration required to inhibit HIV-1 induced cytopathicity in human CEM cell line; format: functional, organism-based; conditions: Human immunodeficiency virus 1, CCRF-CEM
[5] = test system: Human immunodeficiency virus 2; experiment: Effective concentration required to inhibit HIV-2 induced cytopathicity in human CEM cell line; format: functional, organism-based; conditions: Human immunodeficiency virus 2, CCRF-CEM
[6] = test system: Human immunodeficiency virus 1; experiment: Effective concentration required to inhibit HIV-1 induced cytopathicity in human MT-4 cell line; format: functional, organism-based; conditions: Human immunodeficiency virus 1, MT4
[7] = test system: Human immunodeficiency virus 2; experiment: Effective concentration required to inhibit HIV-2 induced cytopathicity in human MT-4 cell line; format: functional, organism-based; conditions: Human immunodeficiency virus 2, MT4
[8] = test system: Human immunodeficiency virus 1; experiment: Effective concentration required to inhibit HIV-1/138K induced cytopathicity in human CEM cell line; format: functional, organism-based; conditions: Human immunodeficiency virus 1, CCRF-CEM

In the case of `Cc1cn([C@@H]2O[C@H](CO[Si](C)(C)C(C)(C)C)[C@@]3(OS(=O)(=O)C=C3N)[C@H]2O[Si](C)(C)C(C)(C)C)c(=O)n(Cc2ccccc2)c1=O`, the IC50 [1] is reported as > 500 µM, the CC50 [2] is reported as 53 µM and the SI [3] is reported as 294. The EC50 [4] was 0.18 µM, the EC50 [5] was > 50 µM and the EC50 [6] was 0.47 µM. For the same molecule, the EC50 [7] was > 50 µM and the EC50 [8] was > 50 µM.
With `Cc1cn([C@@H]2O[C@H](CO[Si](C)(C)C(C)(C)C)[C@@]3(OS(=O)(=O)C=C3N)[C@H]2O[Si](C)(C)C(C)(C)C)c(=O)n(CCC[N+](C)(C)C)c1=O.[I-]` the IC50 [1] was 11 µM, the CC50 [2] was 110 µM and the SI [3] was 22. The EC50 [4] was 5 µM, the EC50 [5] was > 25 µM and the EC50 [6] was 4.9 µM. For the same molecule, the EC50 [7] was > 25 µM and the EC50 [8] was > 25 µM.
With `Cc1cn([C@@H]2O[C@H](CO[Si](C)(C)C(C)(C)C)C3(OS(=O)(=O)C=C3N)[C@H]2O[Si](C)(C)C(C)(C)C)c(=O)[nH]c1=O` (some centres undefined) the CC50 [2] was 12 µM, the SI [3] was 200 and the EC50 [5] was > 20 µM. The EC50 [7] was > 20 µM and the EC50 [8] was > 10 µM.
With `Cc1cn([C@@H]2O[C@H](CO[Si](C)(C)C(C)(C)C)[C@@]3(OS(=O)(=O)C=C3N)[C@H]2O[Si](C)(C)C(C)(C)C)c(=O)n(CCc2ccccc2)c1=O` the IC50 [1] was > 500 µM, the CC50 [2] was 14.2 µM and the SI [3] was 23. For the same molecule, the EC50 [4] was 0.62 µM, the EC50 [5] was > 10 µM and the EC50 [7] was > 2 µM. For the same molecule, the EC50 [8] was > 10 µM.
Molecule `CNC(=O)CCCCCn1c(=O)c(C)cn([C@@H]2O[C@H](CO[Si](C)(C)C(C)(C)C)[C@@]3(OS(=O)(=O)C=C3N)[C@H]2O[Si](C)(C)C(C)(C)C)c1=O` has an IC50 [1] of 2.4 µM, a CC50 [2] of 22.1 µM and an SI [3] of 442. The EC50 [4] was 0.05 µM, the EC50 [5] was > 125 µM and the EC50 [6] was 0.03 µM. For the same molecule, the EC50 [7] was > 125 µM and the EC50 [8] was 10 µM.
In the case of `Cc1cn([C@@H]2O[C@H](CO[Si](C)(C)C(C)(C)C)[C@@]3(OS(=O)(=O)C=C3N)[C@H]2O[Si](C)(C)C(C)(C)C)c(=O)n(CCCN(C)C)c1=O`, the IC50 [1] is reported as 6.6 µM, the CC50 [2] is reported as 10.4 µM and the SI [3] is reported as 61. For the same molecule, the EC50 [4] was 0.17 µM, the EC50 [5] was > 10 µM and the EC50 [6] was 0.16 µM. For the same molecule, the EC50 [7] was > 10 µM and the EC50 [8] was > 10 µM.
`CCCCOC(=O)CN(CCCn1c(=O)c(C)cn([C@@H]2O[C@H](CO[Si](C)(C)C(C)(C)C)[C@@]3(OS(=O)(=O)C=C3N)[C@H]2O[Si](C)(C)C(C)(C)C)c1=O)CC(=O)OCCCC` was tested, and the IC50 [1] was > 500 µM, the CC50 [2] was > 250 µM and the SI [3] was 71. The EC50 [4] was 3.5 µM, the EC50 [5] was > 250 µM and the EC50 [6] was 12.8 µM. The EC50 [7] was > 250 µM and the EC50 [8] was > 250 µM.
With `Cc1cn([C@@H]2O[C@H](CO[Si](C)(C)C(C)(C)C)[C@@]3(OS(=O)(=O)C=C3N)[C@H]2O[Si](C)(C)C(C)(C)C)c(=O)n(CCc2cccc3cc[nH]c23)c1=O` the IC50 [1] was > 500 µM, the CC50 [2] was 27.6 µM and the SI [3] was 81. The EC50 [4] was 0.34 µM, the EC50 [5] was > 50 µM and the EC50 [6] was 0.96 µM. The EC50 [7] was > 10 µM and the EC50 [8] was > 50 µM.
With `Cc1cn([C@@H]2O[C@H](CO[Si](C)(C)C(C)(C)C)[C@@]3(OS(=O)(=O)C=C3N)[C@H]2O[Si](C)(C)C(C)(C)C)c(=O)n(CC(=O)OCc2ccccc2)c1=O` the IC50 [1] was > 250 µM, the CC50 [2] was 12.9 µM and the SI [3] was 31. For the same molecule, the EC50 [4] was 0.41 µM, the EC50 [5] was > 5 µM and the EC50 [6] was 0.54 µM. The EC50 [7] was > 27 µM.
`Cc1cn([C@@H]2O[C@H](CO[Si](C)(C)C(C)(C)C)[C@@]3(OS(=O)(=O)C=C3N)[C@H]2O[Si](C)(C)C(C)(C)C)c(=O)n(CCCN)c1=O` was tested, and the IC50 [1] was 8.1 µM, the CC50 [2] was 11.6 µM and the SI [3] was 83. For the same molecule, the EC50 [4] was 0.14 µM, the EC50 [5] was > 10 µM and the EC50 [7] was > 10 µM. The EC50 [8] was > 10 µM.
Molecule `Cc1cn([C@@H]2O[C@H](CO[Si](C)(C)C(C)(C)C)[C@@]3(OS(=O)(=O)C=C3N)[C@H]2O[Si](C)(C)C(C)(C)C)c(=O)n(CCO)c1=O` has an IC50 [1] of 3.1 µM, a CC50 [2] of 11.3 µM and an SI [3] of 282. The EC50 [4] was 0.04 µM, the EC50 [5] was > 10 µM and the EC50 [6] was 0.06 µM. For the same molecule, the EC50 [7] was > 10 µM and the EC50 [8] was 8 µM.
`COC(=O)/C=C/Cn1c(=O)c(C)cn([C@@H]2O[C@H](CO[Si](C)(C)C(C)(C)C)[C@@]3(OS(=O)(=O)C=C3N)[C@H]2O[Si](C)(C)C(C)(C)C)c1=O` was tested, and the IC50 [1] was 30 µM, the CC50 [2] was 142 µM and the SI [3] was 2367. For the same molecule, the EC50 [4] was 0.06 µM, the EC50 [5] was > 10 µM and the EC50 [6] was 0.13 µM. For the same molecule, the EC50 [7] was > 250 µM and the EC50 [8] was 5.5 µM.
`Cc1cn([C@@H]2O[C@H](CO[Si](C)(C)C(C)(C)C)[C@@]3(OS(=O)(=O)C=C3N)[C@H]2O[Si](C)(C)C(C)(C)C)c(=O)n(CCCCO)c1=O` gave an IC50 [1] of 13 µM, a CC50 [2] of 20.5 µM and an SI [3] of 227. For the same molecule, the EC50 [4] was 0.09 µM, the EC50 [5] was > 10 µM and the EC50 [6] was 0.17 µM. The EC50 [7] was > 10 µM and the EC50 [8] was ≥ 10 µM.
For `CNC(=O)Cn1c(=O)c(C)cn([C@@H]2O[C@H](CO[Si](C)(C)C(C)(C)C)[C@@]3(OS(=O)(=O)C=C3N)[C@H]2O[Si](C)(C)C(C)(C)C)c1=O`, the IC50 [1] was 3.1 µM, the CC50 [2] was ≥ 250 µM and the SI [3] was “>=12500”. For the same molecule, the EC50 [4] was 0.02 µM, the EC50 [5] was > 50 µM and the EC50 [6] was 0.03 µM. For the same molecule, the EC50 [7] was > 250 µM and the EC50 [8] was 3.5 µM.
With `Cc1cn([C@@H]2O[C@H](CO[Si](C)(C)C(C)(C)C)[C@@]3(OS(=O)(=O)C=C3N)[C@H]2O[Si](C)(C)C(C)(C)C)c(=O)n(CCCN(CC(=O)O)CC(=O)O)c1=O` the IC50 [1] was > 500 µM, the CC50 [2] was > 250 µM and the SI [3] was >63. The EC50 [4] was 4 µM, the EC50 [5] was > 10 µM and the EC50 [7] was > 50 µM. For the same molecule, the EC50 [8] was > 50 µM.
With `Cc1cn([C@@H]2O[C@H](CO[Si](C)(C)C(C)(C)C)[C@@]3(OS(=O)(=O)C=C3N)[C@H]2O[Si](C)(C)C(C)(C)C)c(=O)n(CC(=O)N(C)C)c1=O` the IC50 [1] was 3.5 µM, the CC50 [2] was 245 µM and the SI [3] was 12250. For the same molecule, the EC50 [4] was 0.02 µM, the EC50 [5] was > 250 µM and the EC50 [6] was 0.04 µM. The EC50 [7] was > 250 µM and the EC50 [8] was 4.5 µM.
In the case of `Cc1cn([C@@H]2O[C@H](CO[Si](C)(C)C(C)(C)C)[C@@]3(OS(=O)(=O)C=C3N)[C@H]2O[Si](C)(C)C(C)(C)C)c(=O)n(CC(N)=O)c1=O`, the IC50 [1] is reported as > 250 µM, the CC50 [2] is reported as 13.3 µM and the SI [3] is reported as 266. The EC50 [4] was 0.05 µM, the EC50 [5] was > 10 µM and the EC50 [7] was > 10 µM. The EC50 [8] was > 50 µM.
For `Cc1cn([C@@H]2O[C@H](CO[Si](C)(C)C(C)(C)C)[C@@]3(OS(=O)(=O)C=C3N)[C@H]2O[Si](C)(C)C(C)(C)C)c(=O)n(CC(=O)O)c1=O`, the IC50 [1] was 15 µM, the CC50 [2] was 152 µM and the SI [3] was 44. For the same molecule, the EC50 [4] was 3.48 µM, the EC50 [5] was ≥ 155 µM and the EC50 [7] was > 155 µM.
For `Cc1cn([C@@H]2O[C@H](CO[Si](C)(C)C(C)(C)C)[C@@]3(OS(=O)(=O)C=C3N)[C@H]2O[Si](C)(C)C(C)(C)C)c(=O)n(CCCO)c1=O`, the IC50 [1] was 3 µM, the CC50 [2] was 3.86 µM and the SI [3] was 386. For the same molecule, the EC50 [4] was 0.01 µM, the EC50 [5] was > 2 µM and the EC50 [7] was > 2 µM.
For `COC(=O)Cn1c(=O)c(C)cn([C@@H]2O[C@H](CO[Si](C)(C)C(C)(C)C)[C@@]3(OS(=O)(=O)C=C3N)[C@H]2O[Si](C)(C)C(C)(C)C)c1=O`, the IC50 [1] was 3 µM, the CC50 [2] was > 152 µM and the SI [3] was >253. For the same molecule, the EC50 [4] was 0.06 µM, the EC50 [5] was > 152 µM and the EC50 [6] was 0.11 µM. For the same molecule, the EC50 [7] was > 152 µM.
`COC(=O)CCCCn1c(=O)c(C)cn([C@@H]2O[C@H](CO[Si](C)(C)C(C)(C)C)[C@@]3(OS(=O)(=O)C=C3N)[C@H]2O[Si](C)(C)C(C)(C)C)c1=O` showed an IC50 [1] of 327 µM, a CC50 [2] of 125 µM and an SI [3] of 1563. The EC50 [4] was 0.08 µM, the EC50 [5] was ≥ 142 µM and the EC50 [6] was 0.2 µM. For the same molecule, the EC50 [7] was > 142 µM.
